Assay results as given in PubChem BioAssay AID2060619 (Molecular Pharmacology Branch, DTP, NCI, 2025).

Tested on: 323965-272-R-J2-PDC complex spheroid viability
Assay: Anticancer human tumor 323965-272-R-J2-PDC patient-derived pancreatic carcinoma cell line growth inhibition [CLK]
Settings: for IC50: curve of first compound; for viability, T/C: stronger effect = lower value
Procedure, shortened: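 Multi-cell-type spheroids combined patient-derived tumor cells with HUVEC endothelial cells and human mesenchymal stem cells. Paired agents were dosed in half-log steps down from about clinical Cmax, or from 10 microM where Cmax was unknown.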

[1] = second compound 0.0316 µM, first compound 0.0316 µM
[2] = second compound 0.0316 µM, first compound 0.1 µM
[3] = second compound 0.0316 µM, first compound 0.316 µM
[4] = second compound 0.0316 µM, first compound 1 µM
[5] = second compound 0.1 µM, first compound 0.0316 µM
[6] = second compound 0.1 µM, first compound 0.1 µM
[7] = second compound 0.1 µM, first compound 0.316 µM
[8] = second compound 0.1 µM, first compound 1 µM
[9] = second compound 0.316 µM, first compound 0.0316 µM
[10] = second compound 0.316 µM, first compound 0.1 µM
[11] = second compound 0.316 µM, first compound 0.316 µM
[12] = second compound 0.316 µM, first compound 1 µM
[13] = second compound 1 µM, first compound 0.0316 µM
[14] = second compound 1 µM, first compound 0.1 µM
[15] = second compound 1 µM, first compound 0.316 µM
[16] = second compound 1 µM, first compound 1 µM
[17] = second compound 3.16 µM, first compound 0.0316 µM
[18] = second compound 3.16 µM, first compound 0.1 µM
[19] = second compound 3.16 µM, first compound 0.316 µM
[20] = second compound 3.16 µM, first compound 1 µM
[21] = second compound 10 µM, first compound 0.0316 µM
[22] = second compound 10 µM, first compound 0.1 µM
[23] = second compound 10 µM, first compound 0.316 µM
[24] = second compound 10 µM, first compound 1 µM
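Note: spheroids exposed to agents for seven days before readout.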
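Throughout, for viability, T/C: percent of DMSO vehicle control wells so 100% = untreated growth.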

Compound `COc1c(OCCCN2CCOCC2)ccc2c3n(c(=NC(=O)c4cnc(N)nc4)nc12)CCN3` + CN1CCN(c2cc(C(=O)Nc3cc4cc(-c5cnn(C)c5)ccc4cn3)ccn2)CC1 has an IC50 (second compound 0.0316 µM) of 40.1 nM, an IC50 (second compound 0.1 µM) of 18.7 nM and an IC50 (second compound 0.316 µM) of less than 3.16 nM. The IC50 (second compound 1 µM) was less than 3.16 nM, the IC50 (second compound 3.16 µM) was less than 3.16 nM and the IC50 (second compound 10 µM) was less than 3.16 nM. It also gave a viability, T/C (second compound 0.0316 µM, first compound 0.00316 µM) of 85.5%, a viability, T/C (second compound 0.0316 µM, first compound 0.01 µM) of 77.1% and a viability, T/C [1] of 50%. For the same compound, the viability, T/C [2] was 39.6%, the viability, T/C [3] was 28.8% and the viability, T/C [4] was 25.9%. It also gave a viability, T/C (second compound 0.1 µM, first compound 0.00316 µM) of 64.5%, a viability, T/C (second compound 0.1 µM, first compound 0.01 µM) of 63% and a viability, T/C [5] of 39.3%. For the same compound, the viability, T/C [6] was 26%, the viability, T/C [7] was 21.4% and the viability, T/C [8] was 19.3%. It also gave a viability, T/C (second compound 0.316 µM, first compound 0.00316 µM) of 23.6%, a viability, T/C (second compound 0.316 µM, first compound 0.01 µM) of 21.5% and a viability, T/C [9] of 15.9%. The viability, T/C [10] was 15.7%, the viability, T/C [11] was 12.2% and the viability, T/C [12] was 11.9%. For the same compound, the viability, T/C (second compound 1 µM, first compound 0.00316 µM) was 3.49%, the viability, T/C (second compound 1 µM, first compound 0.01 µM) was 2.87% and the viability, T/C [13] was 2.38%. It also gave a viability, T/C [14] of 2.22%, a viability, T/C [15] of 1.51% and a viability, T/C [16] of 0.92%. It also gave a viability, T/C (second compound 3.16 µM, first compound 0.00316 µM) of 3.25%, a viability, T/C (second compound 3.16 µM, first compound 0.01 µM) of 4.48% and a viability, T/C [17] of 3.03%. For the same compound, the viability, T/C [18] was 1.39%, the viability, T/C [19] was 1.26% and the viability, T/C [20] was 0.84%. It also gave a viability, T/C (second compound 10 µM, first compound 0.00316 µM) of 4.13%, a viability, T/C (second compound 10 µM, first compound 0.01 µM) of 3.87% and a viability, T/C [21] of 3.7%. The viability, T/C [22] was 2.13%, the viability, T/C [23] was 1.69% and the viability, T/C [24] was 2.03%.
Work on `COc1ccc([C@@H](O)c2cc(-c3ncnc4cc(N5CCOCC5)ccc34)c(F)cc2Cl)nn1` + CN1CCN(c2cc(C(=O)Nc3cc4cc(-c5cnn(C)c5)ccc4cn3)ccn2)CC1 yielded an IC50 (second compound 0.0316 µM) of 7780 nM, an IC50 (second compound 0.1 µM) of 3340 nM and an IC50 (second compound 0.316 µM) of less than 31.6 nM. For the same compound, the IC50 (second compound 1 µM) was less than 31.6 nM, the IC50 (second compound 3.16 µM) was less than 31.6 nM and the IC50 (second compound 10 µM) was less than 31.6 nM. It also gave a viability, T/C [1] of 94.2%, a viability, T/C [2] of 100% and a viability, T/C [3] of 84%. For the same compound, the viability, T/C [4] was 89.7%, the viability, T/C (second compound 0.0316 µM, first compound 3.16 µM) was 68.8% and the viability, T/C (second compound 0.0316 µM, first compound 10 µM) was 44.5%. It also gave a viability, T/C [5] of 70.5%, a viability, T/C [6] of 80.3% and a viability, T/C [7] of 62.9%. The viability, T/C [8] was 61.8%, the viability, T/C (second compound 0.1 µM, first compound 3.16 µM) was 51% and the viability, T/C (second compound 0.1 µM, first compound 10 µM) was 37.8%. For the same compound, the viability, T/C [9] was 21.9%, the viability, T/C [10] was 23.9% and the viability, T/C [11] was 22.8%. It also gave a viability, T/C [12] of 21.1%, a viability, T/C (second compound 0.316 µM, first compound 3.16 µM) of 19.1% and a viability, T/C (second compound 0.316 µM, first compound 10 µM) of 21.1%. For the same compound, the viability, T/C [13] was 4.14%, the viability, T/C [14] was 3.13% and the viability, T/C [15] was 4.35%. It also gave a viability, T/C [16] of 2.76%, a viability, T/C (second compound 1 µM, first compound 3.16 µM) of 3.07% and a viability, T/C (second compound 1 µM, first compound 10 µM) of 4.48%. For the same compound, the viability, T/C [17] was 4.01%, the viability, T/C [18] was 4.31% and the viability, T/C [19] was 6.05%. For the same compound, the viability, T/C [20] was 4.02%, the viability, T/C (second compound 3.16 µM, first compound 3.16 µM) was 5.21% and the viability, T/C (second compound 3.16 µM, first compound 10 µM) was 4.73%. It also gave a viability, T/C [21] of 4.33%, a viability, T/C [22] of 5.55% and a viability, T/C [23] of 4.42%. It also gave a viability, T/C [24] of 5.56%, a viability, T/C (second compound 10 µM, first compound 3.16 µM) of 5.95% and a viability, T/C (second compound 10 µM, first compound 10 µM) of 6.95%.
